{
  "source": "patent US20010039295A1",
  "about": "“N,N'-bis(2-hydroxybenzyl)-ethylenediamine-N,N'-diacetic acid in iron chelating therapy” (priority 1999, published 2001)",
  "key": {"[1]": {"settings": "typical, parenteral therapy; cited from earlier work"}, "[2]": {"system": "iron loaded Cebus apella monkey", "settings": "Cebus apella monkey screen, DFOM subcutaneous (Bergeron et al. 1993; Peter et al. 1994); cited from earlier work"}, "[3]": {"settings": "given orally to human patients; cited from earlier work"}, "[4]": {"settings": "IV bolus, conscious rats, 200-300 mg/kg"}, "[5]": {"system": "iron loaded Cebus apella monkey", "assay": "Iron-balance study (iron clearing efficiency) in iron-loaded Cebus apella monkeys"}, "[6]": {"assay": "Impact of IV chelator on blood pressure and heart rate in normotensive rats", "type": "in vivo, Sprague Dawley rats", "method": "Owing to the profound impact that DFO administered IV can have on blood pressure and cardiac function (Whitten, D. F.; Gibson, G. W.; Good, M. H.; Goodwin, J. F.; Brough, A. J. Studies in Acute Iron Poisoning. I. Desferrioxamine in the Treatment of Acute Iron Poisoning: Clinical Observations, Experimental Studies, and Theoretical Considerations. Pediatrics 1965, 36, 322-335), the manufacter recommends that the drug be given by this route at doses not to exceed 15 mg/kg/h (22 μmol/kg/h). In addition, patients suffering from acute iron toxicity should be given DFO IV only under circumstances of cardiovascular collapse, and even then at doses not to exceed 15 mg/kg/h for the first 1000 mg. Subject IV dosing, if needed, must be at a slower rate not to exceed 125 mg/h. Upon consideration of this, this example compares the impact of DFO and NaHBED administered IV on blood pressure and heart rate in normotensive rodents. The chelators were administered at a dose of 300 μmol/kg in a 0.5-ml volume either by IV bolus (n=5 for both drugs) or by IV infusion over a 20-min period (n=5 for NaHBED, n=4 for DFO) in accordance with the following procedure.\nThe basic procedure has been described in an earlier publication (Bergeron, R. J.; Wiegand, J.; Sninsky, C. A.; Katovich, M. J. The Impact of Polyamine Analogues on the Blood Pressure of Normotensive and Hypertensive Rats. Clin. Exp. Hypertension 1995, 17, 1197-1217). Briefly, normotensive adult male Sprague Dawley rats (400 g) were anesthetized with sodium pentobarbital (55 mg/kg IP). After the neck and shoulder areas were prepared for surgery, an incision was made into the neck area. The proximal end of the carotid artery was tied off with 3-0 silk; the other end was clamped. Once a piece of PE-50 tubing was inserted approximately 3 cm into the artery and tied into place; the tubing was skin tunneled to the shoulder area. The jugular vein was cannulated using a similar procedure. Both of the tubings were flushed with heparin (100 U/ml); a stylet was inserted.\nApproximately 24 h after the surgery, the animals were placed into individual cages and were connected to a blood pressure transducer (ADInstrurnents, Inc., Milford, MA) via the carotid catheter. […]\nAfter a ½-h stabilization period, 0.5 ml of saline was administered as an IV bolus via the jugular vein catheter, and the blood pressure and heart rate were monitored for 5 min. […] The blood pressure and heart rate readings were taken for 1 h post-drug, during which the animals were unrestrained.\nRats receiving the drug as a 20-min IV infusion (n=5 for HBED, n=4 for DFO) were allowed to acclimate as above. […] Blood pressure and heart rate were monitored during the infusion and for one hour thereafter."}, "[7]": {"settings": "IV push, single dose 75 μmol/kg"}, "[8]": {"settings": "300 μmol/kg, 20-min IV infusion"}},
  "note": "Counter-ions that a name gives are not always drawn.",
  "data": [
    {"smiles": "CC(=O)N(O)CCCCCNC(=O)CCC(=O)N(O)CCCCCNC(=O)CCC(=O)N(O)CCCCCN", "note": "[DFO, deferoxamine B]", "values": [
      {"measurement": "share of the compound administered that binds iron", "setting": "[1]", "result": "≤ 5", "unit": "%"},
      {"measurement": "activity compared with HBED or its dimethyl ester given orally", "setting": "[2]", "result": "significantly higher activity"}
    ]},
    {"smiles": "O=C(O)CN(CCN(CC(=O)O)Cc1ccccc1O)Cc1ccccc1O", "note": "[HBED, N,N′-bis(2-hydroxybenzyl)-ethylenediamine-N,N′-diacetic acid]", "values": [
      {"measurement": "iron excretion level", "setting": "[3]", "result": "ineffective for the treatment of iron overload"}
    ]},
    {"smiles": "O=C(O)CN(CCN(CC(=O)O)Cc1ccccc1O)Cc1ccccc1O", "note": "[HBED monosodium salt, N,N′-bis(2-hydroxybenzyl)-ethylenediamine-N,N′-diacetic acid]", "values": [
      {"measurement": "side-effects", "setting": "[4]", "result": "no apparent side-effects"},
      {"measurement": "net iron excretion relative to similar doses of subcutaneous DFOM", "setting": "[5]; IV push 75 μmol/kg vs subcutaneous DFOM", "result": "nearly three times"},
      {"measurement": "share of excreted iron in the stool", "setting": "[5]; [7]", "result": 70, "unit": "%"},
      {"measurement": "share of excreted iron in the urine", "setting": "[5]; [7]", "result": 30, "unit": "%"},
      {"measurement": "effect on blood pressure", "setting": "[6]; 300 μmol/kg IV bolus", "result": "no effect"},
      {"measurement": "effect on heart rate", "setting": "[6]; 300 μmol/kg IV bolus", "result": "no effect"},
      {"measurement": "effect on blood pressure", "setting": "[6]; [8]", "result": "no effect"},
      {"measurement": "effect on heart rate", "setting": "[6]; [8]", "result": "no effect"}
    ]}
  ]
}
